# US20210349097A1, “BIOMARKERS FOR A COMBINATION THERAPY COMPRISING LENVATINIB AND EVEROLIMUS” (Eisai R&D Management Co., Ltd., priority 2018, published 2021)
# Experiments:
# Assay type in all cases: in vivo, human
# [1] = test system: metastatic renal cell carcinoma (RCC); assay: Phase 2 study in metastatic RCC after prior VEGF-targeted therapy: objective response rate (ORR) by composite biomarker score
# Experimental: (§1) A Phase 2 study for lenvatinib was performed in patients with metastatic renal cell carcinoma (RCC) following a VEGF-targeted therapy. Patients having metastatic renal cell carcinoma after a prior VEGF-targeted therapy received lenvatinib mesylate (“lenvatinib”), everolimus, or the combination thereof until disease progression or development of unmanageable toxicities. A total of 153 subjects were randomized into 3 treatment arms to receive:
# (§2) 1) 18 mg/day lenvatinib (as lenvatinib free base; the same shall apply hereinafter)+5 mg/day everolimus (Arm A [LEN/EVE treatment arm], N=51),
# (§3) 2) lenvatinib 24 mg/day (Arm B [LEN treatment arm], N=52), or
# (§4) 3) everolimus 10 mg/day (Arm C [EVE treatment arm], N=50).
# (§5) Each Cycle consisted of 4 weeks (28 days)
# (§6) Blood samples for biomarker assessments were collected from subjects in all 3 treatment arms (LEN/EVE, N=49; LEN, N=51; EVE, N=47; Total, N=147) at Cycle 1 Day 1(pre-treatment). In samples from 145 subjects (94.8% of all Intention to Treat [ITT] population; LEN/EVE, N=49; LEN, N=50; EVE, N=46), 40 candidate biomarkers shown in Table 1 were assayed using 19 preconfigured CustomMAP immunoassay panels and measured by a multiplex flow cytometry-based platform by the manufacturer (Multi-Analyte Profile (MAP)) at a Myriad RBM (Austin, Tex., USA).
# (§7) For each biomarker integrated into the CBS, a value of 1 was assigned if the respective baseline biomarker level fell within the range determined to associate with longer survival in the single biomarker cutoff analysis; a value of 0 was assigned if the respective baseline biomarker level was categorized in the range associated with shorter survival. The sum of the individual values (0 vs. 1 for each of the 5 biomarkers) was computed as a CBS for each subject (range 0-5). Patients were then dichotomized per CBS as low and high groups (0 vs. 1-5, 0-1 vs. 2-5, 0-2 vs. 3-5, 0-3 vs. 4-5, and 0-4 vs. 5). Associations between the groups and PFS were explored using univariate Cox regression and the log-rank test with each of the selected dichotomization points in each treatment arm. Interaction P values were estimated by multivariate Cox regression analysis with treatment arm, baseline level and PFS. Associations between the groups and objective response rate (ORR) were also explored using Fisher's exact test.
# as §7, with “the range previously determined to” for “the range determined to”, “longer survival on single biomarker” for “longer survival in the single biomarker”, “subject (range 0-5; high=favorable survival). Patients were” for “subject (range 0-5). Patients were”, “groups and OS were explored” for “groups and PFS were explored”, “level and OS. Associations between” for “level and PFS. Associations between”
# (§8) For each biomarker integrated into the CBS, a value of 1 was assigned if the respective baseline biomarker level fell within the range determined to associate with longer survival in the single biomarker cutoff analysis; a value of 0 was assigned if the respective baseline biomarker level was categorized in the range associated with shorter survival. The sum of the individual values (0 vs. 1 for each of the 2 biomarkers) was computed as a CBS for each subject (range 0-2). […]
# [2] = test system: metastatic renal cell carcinoma (RCC); assay: Phase 2 study in metastatic RCC after prior VEGF-targeted therapy: progression free survival (PFS) by baseline serum biomarker / composite biomarker score
# Experimental: as §1, §2, §3, §4, §5, §6
# (§9) For baseline levels of each serum biomarker, correlation analyses with PFS were performed using univariate Cox regression in each of the 3 arms. Hazard ratio (HR) for biomarkers with continuous values was calculated as a ratio of hazards between measured values with one standard deviation (HR per standard deviation). Baseline serum IL-18BP levels were associated with PFS in the LEN/EVE arm (Table 2). In the following tables, FDR refers to False Discovery Rate, MST refers to Median Survival Time and CI refers to Confidence Interval.
# For IL-18BP, dichotomized analysis was performed to correlate baseline serum biomarker levels in subjects with low and high levels with PFS in the 3 arms. The cutoff points were median, first tertile, second tertile, first quartile or third quartile. Association between the groups and PFS was explored using univariate Cox regression and the log-rank test with each of the selected cutoff points. At the second tertile cutoff point, median PFS for the high IL-18BP group (5.6 months) was shorter than that for the low group (17.5 months) in the LEN/EVE arm (Table 3).
# as §7, §8
# [3] = test system: metastatic renal cell carcinoma (RCC); assay: Phase 2 study in metastatic RCC after prior VEGF-targeted therapy: overall survival (OS) by baseline serum biomarker / composite biomarker score
# Experimental: as §1, §2, §3, §4, §5, §6
# as §9, with “OS” for “PFS”, “FGF-21, ICAM-1, and M-CSF” for “IL-18BP”, “4).” for “2). In the following tables, FDR refers to False Discovery Rate, MST refers to Median Survival Time and CI refers to Confidence Interval.”
# For FGF-21, ICAM-1, and M-CSF, dichotomized analyses were performed to correlate baseline serum biomarker levels in subjects with low and high levels with OS in the 3 arms using univariate Cox regression and the log-rank test at median cutoff point. Low baseline levels of FGF-21, ICAM-1, and M-CSF were associated with longer OS in the LEN/EVE arm (Table 5).
# as §7, with “the range previously determined to” for “the range determined to”, “longer survival on single biomarker” for “longer survival in the single biomarker”, “subject (range 0-5; high=favorable survival). Patients were” for “subject (range 0-5). Patients were”, “groups and OS were explored” for “groups and PFS were explored”, “level and OS. Associations between” for “level and PFS. Associations between”
# as §7, with “2” for “5”, “0-2).” for “0-5).”, “1-2 and” for “1-5,”, “2).” for “2-5, 0-2 vs. 3-5, 0-3 vs. 4-5, and 0-4 vs. 5).”, “OS” for “PFS”, “Interaction P values were estimated by multivariate Cox regression analysis with treatment arm, baseline level and PFS. Associations between the groups and objective response rate (ORR) were also explored using Fisher's exact test.” left out
# [4] = 5-marker CBS (HGF, MIG, IL-18BP, IL-18, ANG-2)
# [5] = 5-marker CBS (TIMP-1, M-CSF, IL-18BP, ANG-2, VEGF-A)
structure (smiles),measurement,setting,value
"CO[C@H]1C[C@@H]2CC[C@@H](C)[C@@](O)(O2)C(=O)C(=O)N2CCCC[C@H]2C(=O)O[C@H]([C@H](C)C[C@@H]2CC[C@@H](OCCO)[C@H](OC)C2)CC(=O)[C@H](C)/C=C(\C)[C@@H](O)[C@@H](OC)C(=O)[C@H](C)C[C@H](C)/C=C/C=C/C=C/1C [EVE, (1R,9S,12S,15R,16E,18R,19R,21R,23S,24E,26E,28E,30S,32S,35R)-1,18-dihydroxy-12-{(1R)-2-[(1S,3R,4R)-4-(2-hydroxyethoxy)-3-methoxycyclohexyl]-1-methylethyl}-19,30-dimethoxy-15,17,21,23,29,35-hexamethyl-11,36-dioxa-4-aza-tricyclo[30.3.1.0^4,9]hexatriaconta-16,24,26,28-tetraene-2,3,10,14,20-pentaone]","ORR, CBS High (1-2)","[1]; 2-marker CBS (IL-18BP, ANG-2)",6.9%
same,"ORR, CBS Low (0)","[1]; 2-marker CBS (IL-18BP, ANG-2)",0.0%
same,"ORR, CBS High (3-5)",[1]; [4],5.0%
same,"ORR, CBS Low (0-2)",[1]; [4],4.2%
same,"ORR, CBS High (3-5)",[1]; [5],5.3%
same,"ORR, CBS Low (0-2)",[1]; [5],4.0%
same,"mPFS, CBS High (1-2)","[2]; 2-marker CBS (IL-18BP, ANG-2)",5.5 mo
same,"mPFS, CBS Low (0)","[2]; 2-marker CBS (IL-18BP, ANG-2)",3.0 mo
same,"mPFS, high CBS score (1-2)","[2]; 2-marker CBS (IL-18BP, ANG-2)",5.5 months
same,"mPFS, CBS High (3-5)",[2]; [4],3.6 mo
same,"mPFS, CBS Low (0-2)",[2]; [4],5.5 mo
same,"mPFS, high CBS score (3-5)",[2]; [4],3.6 months
same,"MST (median PFS), IL-18BP High Group","[2]; baseline serum IL-18BP high, cutoff quantile 0.67 (second tertile)",3.5 months
same,"MST (median PFS), IL-18BP Low Group","[2]; baseline serum IL-18BP low, cutoff quantile 0.67 (second tertile)",5.5 months
same,"HR (95% CI) PFS, IL-18BP low and high groups","[2]; cutoff quantile 0.67 (second tertile), univariate Cox regression",1.194
same,"HR (95% CI), baseline IL-18BP with PFS","[2]; univariate Cox regression, HR per standard deviation of baseline serum IL-18BP",1.207
same,"HR OS, high CBS (1-2) vs low CBS (0) within arm","[3]; 2-marker CBS (IL-18BP, ANG-2)",0.461
same,"mOS, CBS High (1-2)","[3]; 2-marker CBS (IL-18BP, ANG-2)",17.5 mo
same,"mOS, CBS Low (0)","[3]; 2-marker CBS (IL-18BP, ANG-2)",11.4 mo
same,"mOS, high CBS score (1-2)","[3]; 2-marker CBS (IL-18BP, ANG-2)",17.5 months
same,"mOS, low CBS score (0)","[3]; 2-marker CBS (IL-18BP, ANG-2)",11.4 months
same,"mOS, CBS High (3-5)",[3]; [5],17.4 mo
same,"mOS, CBS Low (0-2)",[3]; [5],15.0 mo
same,"mOS, high CBS score (3-5)",[3]; [5],17.4 months
same,"MST (median OS), FGF-21 High","[3]; baseline FGF-21 high, cutoff quantile 0.5 (median)",19.5
same,"MST (median OS), FGF-21 Low","[3]; baseline FGF-21 low, cutoff quantile 0.5 (median)",15.3
same,"MST (median OS), ICAM-1 High","[3]; baseline ICAM-1 high, cutoff quantile 0.5 (median)",18.5
same,"MST (median OS), ICAM-1 Low","[3]; baseline ICAM-1 low, cutoff quantile 0.5 (median)",13.3
same,"MST (median OS), M-CSF High","[3]; baseline M-CSF high, cutoff quantile 0.5 (median)",15.4
same,"MST (median OS), M-CSF Low","[3]; baseline M-CSF low, cutoff quantile 0.5 (median)",17.2
same,"HR (95% CI) OS, FGF-21 low and high groups",[3]; cutoff quantile 0.5 (median),0.741
same,"HR (95% CI) OS, ICAM-1 low and high groups",[3]; cutoff quantile 0.5 (median),0.66
same,"HR (95% CI) OS, M-CSF low and high groups",[3]; cutoff quantile 0.5 (median),1.146
same,"HR (95% CI), baseline FGF-21 with OS","[3]; univariate Cox regression, HR per standard deviation of baseline serum FGF-21",0.996
same,"HR (95% CI), baseline ICAM-1 with OS","[3]; univariate Cox regression, HR per standard deviation of baseline serum ICAM-1",1.017
same,"HR (95% CI), baseline M-CSF with OS","[3]; univariate Cox regression, HR per standard deviation of baseline serum M-CSF",1.366
